Patent publication US9199946B2, “Pyrimidinone carboxamide inhibitors of endothelial lipase” (BRISTOL-MYERS SQUIBB COMPANY, priority 2012, dated 2015)
Like-named read-outs stand apart in the source and are kept apart here.

Target: T1, Endothelial lipase (EL) (Homo sapiens, UniProt Q9Y5X9)
T1 construct: HT-1080 cells, which were transformed by RAGE technology (Athersys) to overexpress endogenous EL; endogenous in cells; conditioned medium used as the enzyme source
T1 sequence (Q9Y5X9 21-500): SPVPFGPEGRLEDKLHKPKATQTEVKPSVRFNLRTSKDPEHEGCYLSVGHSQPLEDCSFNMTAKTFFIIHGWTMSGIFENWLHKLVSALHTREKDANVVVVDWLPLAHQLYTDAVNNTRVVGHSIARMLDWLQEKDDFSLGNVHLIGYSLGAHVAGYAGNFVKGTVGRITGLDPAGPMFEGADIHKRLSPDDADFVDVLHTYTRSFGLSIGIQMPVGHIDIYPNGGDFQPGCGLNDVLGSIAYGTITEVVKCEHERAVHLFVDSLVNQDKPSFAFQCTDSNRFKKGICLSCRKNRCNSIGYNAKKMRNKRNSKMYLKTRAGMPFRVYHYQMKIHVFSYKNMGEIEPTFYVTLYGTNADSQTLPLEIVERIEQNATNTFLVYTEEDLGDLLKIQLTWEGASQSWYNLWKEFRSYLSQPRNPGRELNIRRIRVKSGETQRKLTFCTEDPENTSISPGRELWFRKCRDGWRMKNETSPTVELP
Assay: Endothelial lipase (EL) enzymatic assay with fluorescent substrate A10070 in DMPG vesicles
Assay type: biochemical
How it was run: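 The enzyme source was conditioned medium from HT-1080 cells engineered to overexpress endogenous EL. It was preincubated with compound for 20 min at 37 °C in 50 mM HEPES pH 8.0, 50 mM NaCl, 1 mM CaCl2. Reactions started with DMPG vesicles carrying FRET substrate A10070 (mole fraction 0.05). The rate was taken from the linear slope of fluorescence (ex 488/em 530 nm) over 10 min.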

[1] = range observed in the EL assay, read-out: EL IC50 values
[2] = conditioned media from HT-1080 cells overexpressing endogenous EL, 20 min preincubation at 37° C., read-out: EL IC50

IC50 [1] | IC50 [2] | SMILES
≤ 10 µM | – | COc1cccc2c1CCC[C@H]2NC(=O)c1[nH]c(=O)[nH]c(=O)c1N [Example 103, (R)-5-amino-N-(5-methoxy-1,2,3,4-tetrahydronaphthalen-1-yl)-2,6-dioxo-1,2,3,6-tetrahydropyrimidine-4-carboxamide]
≤ 10 µM | 9.86 µM | Nc1c(C(=O)NC2CCN(C(=O)Nc3ccc(C(F)(F)F)cc3)c3ccccc32)[nH]c(=O)[nH]c1=O (centres unmarked) [Example 26, 4-(5-amino-2,6-dioxo-1,2,3,6-tetrahydropyrimidine-4-carboxamido)-N-(4-(trifluoromethyl)phenyl)-3,4-dihydroquinoline-1(2H)-carboxamide]
≤ 10 µM | – | COc1ccc2c(c1)CCCC2NC(=O)c1[nH]c(=O)[nH]c(=O)c1N (centres unmarked) [Example 31, 5-amino-N-(6-methoxy-1,2,3,4-tetrahydronaphthalen-1-yl)-2,6-dioxo-1,2,3,6-tetrahydropyrimidine-4-carboxamide]
≤ 10 µM | – | Nc1c(C(=O)N[C@@H]2CCc3c(OCc4ccccc4)cccc32)[nH]c(=O)[nH]c1=O [Example 86, (R)-5-ammo-N-(4-(benzyloxy)-2,3-dihydro-1H-inden-1-yl)-2,6-dioxo-1,2,3,6-tetrahydropyrimidine-4-carboxamide]
≤ 10 µM | – | COc1cccc2c1CCCC2NC(=O)c1[nH]c(=O)[nH]c(=O)c1N (centres unmarked) [Example 47, 5-amino-N-(5-methoxy-1,2,3,4-tetrahydronaphthalen-1-yl)-2,6-dioxo 1,2,3,6-tetrahydropyrimidine-4-carboxamide]
≤ 10 µM | – | Nc1c(C(=O)N[C@@H]2CC[C@@H](c3ccc(Cl)c(Cl)c3)C2)[nH]c(=O)[nH]c1=O [Example 68, 5-amino-N-((1R,3R)-3-(3,4-dichlorophenyl)cyclopentyl)-2,6-dioxo-1,2,3,6-tetrahydropyrimidine-4-carboxamide]
≤ 10 µM | – | Nc1c(C(=O)N[C@H]2CC[C@H](c3ccccc3)C2)[nH]c(=O)[nH]c1=O [Example 76, 5-amino-2,6-dioxo-N-((1S,3S)-3-phenylcyclopentyl)-1,2,3,6-tetrahydropyrimidine-4-carboxamide]
≤ 10 µM | – | COc1cccc2c1C(NC(=O)c1[nH]c(=O)[nH]c(=O)c1N)CCC2 (centres unmarked) [Example 66, 5-amino-N-(8-methoxy-1,2,3,4-tetrahydronaphthalen-1-yl)-2,6-dioxo-1,2,3,6-tetrahydropyrimidine-4-carboxamide]
≤ 10 µM | – | Nc1c(C(=O)N[C@@H]2CCc3cc(OCc4ccccc4)ccc32)[nH]c(=O)[nH]c1=O [Example 87, (R)-5-amino-N-(5-(benzyloxy)-2,3-dihydro-1H-inden-1-yl)-2,6-dioxo-1,2,3,6-tetrahydropyrimidine-4-carboxamide]
≤ 10 µM | – | Nc1c(C(=O)N[C@@H]2CC[C@H](c3ccc(Cl)c(Cl)c3)C2)[nH]c(=O)[nH]c1=O [Example 74, 5-amino-N-((1R,3S)-3-(3,4-dichlorophenyl)cyclopentyl)-2,6-dioxo-1,2,3,6-tetrahydropyrimidine-4-carboxamide]
≤ 10 µM | – | Nc1c(C(=O)N[C@@H]2CCCc3c(OCc4ccccc4)cccc32)[nH]c(=O)[nH]c1=O [Example 82, (R)-5-amino-N-(5-(benzyloxy)-1,2,3,4-tetrahydronaphthalen-1-yl)-2,6-dioxo-1,2,3,6-tetrahydropyrimidine-4-carboxamide]
≤ 10 µM | – | COc1ccc(-c2ccc([C@@H]3CC[C@H](NC(=O)c4[nH]c(=O)[nH]c(=O)c4N)C3)cc2)cc1 [Example 168, 5-amino-N-((1S,3R)-3-(4′-methoxybiphenyl-4-yl)cyclopentyl)-2,6-dioxo-1,2,3,6-tetrahydropyrimidine-4-carboxamide]
≤ 10 µM | – | O=C(N[C@H]1CC[C@H](c2ccccc2)C1)c1[nH]c(=O)[nH]c(=O)c1O [Example 275, 5-hydroxy-2,6-dioxo-N-((1S,3S)-3-phenylcyclopentyl)-1,2,3,6-tetrahydropyrimidine-4-carboxamide]
≤ 10 µM | – | O=C(N[C@@H]1CC[C@@H](C(=O)N[C@H]2CCCc3ccccc32)C1)c1[nH]c(=O)[nH]c(=O)c1O [Example 298, 5-hydroxy-2,6-dioxo-N-((1R,3R)-3-((S)-1,2,3,4-tetrahydronaphthalen-1-ylcarbamoyl)cyclopentyl)-1,2,3,6-tetrahydropyrimidine-4-carboxamide]
≤ 10 µM | – | O=C(N[C@H]1CC[C@@H](c2cccc(C(F)(F)F)c2)CC1)c1[nH]c(=O)[nH]c(=O)c1O [Example 257, 5-hydroxy-2,6-dioxo-N-((1s,4s)-4-(3-(trifluoromethyl)phenyl)cyclohexyl)-1,2,3,6-tetrahydropyrimidine-4-carboxamide]
≤ 10 µM | – | Nc1c(C(=O)NC2CCC(c3cnn(Cc4ccccc4)c3)C2)[nH]c(=O)[nH]c1=O (centres unmarked) [Example 102, 5-amino-N-(3-(1-benzyl-1H-pyrazol-4-yl)cyclopentyl)-2,6-dioxo-1,2,3,6-tetrahydropyrimidine-4-carboxamide]
≤ 10 µM | 1.72 µM | Nc1c(C(=O)N[C@@H]2CCc3ccc(-c4ccccc4)cc32)[nH]c(=O)[nH]c1=O [Example 138, (R)-5-amino-2,6-dioxo-N-(6-phenyl-2,3-dihydro-1H-inden-1-yl)-1,2,3,6-tetrahydropyrimidine-4-carboxamide]
≤ 10 µM | – | COc1ccc2c(c1)C(NC(=O)c1[nH]c(=O)[nH]c(=O)c1N)CC2 (centres unmarked) [Example 11, 5-amino-N-(6-methoxy-2,3-dihydro-1H-inden-1-yl)-2,6-dioxo-1,2,3,6-tetrahydropyrimidine-4-carboxamide]
≤ 10 µM | – | Nc1c(C(=O)N[C@@H]2CCCc3c(Nc4ccccc4)cccc32)[nH]c(=O)[nH]c1=O [Example 126, (R)-5-amino-2,6-dioxo-N-(5-(phenylamino)-1,2,3,4-tetrahydronaphthalen-1-yl)-1,2,3,6-tetrahydropyrimidine-4-carboxamide]
≤ 10 µM | – | CC(C)(C)OC(=O)N1CCC(NC(=O)c2[nH]c(=O)[nH]c(=O)c2N)c2ccccc21 (centres unmarked) [Example 16, tert-butyl 4-(5-amino-2,6-dioxo-1,2,3,6-tetrahydropyrimidine-4-carboxamido)-3,4-dihydroquinoline-1(2H)-carboxylate]
≤ 10 µM | – | O=C(N[C@@H]1CC[C@@H](C(=O)N[C@H]2CC[C@@H](c3ccccc3)CC2)C1)c1[nH]c(=O)[nH]c(=O)c1O [Example 297, 5-hydroxy-2,6-dioxo-N-((1R,3R)-3-((1s,4S)-4-phenylcyclohexylcarbamoyl)cyclopentyl)-1,2,3,6-tetrahydropyrimidine-4-carboxamide]
≤ 10 µM | – | O=C(NC1CCCc2c(NS(=O)(=O)c3ccccc3)cccc21)c1[nH]c(=O)[nH]c(=O)c1O (centres unmarked) [Example 287, 5-hydroxy-2,6-dioxo-N-(5-(phenylsulfonamido)-1,2,3,4-tetrahydronaphthalen-1-yl)-1,2,3,6-tetrahydropyrimidine-4-carboxamide]
≤ 10 µM | – | Nc1c(C(=O)N[C@@H]2CCC[C@H]2OCc2ccccc2)[nH]c(=O)[nH]c1=O [Example 63, 5-amino-N-((1R,2R)-2-(benzyloxy)cyclopentyl)-2,6-dioxo-1,2,3,6-tetrahydropyrimidine-4-carboxamide]
≤ 10 µM | – | Nc1c(C(=O)N[C@H]2CC[C@@H](c3ccc(Cl)c(Cl)c3)C2)[nH]c(=O)[nH]c1=O [Example 67, 5-amino-N-((1S,3R)-3-(3,4-dichlorophenyl)cyclopentyl)-2,6-dioxo-1,2,3,6-tetrahydropyrimidine-4-carboxamide]
≤ 10 µM | – | Nc1c(C(=O)N[C@@H]2CCCc3c2cccc3C(F)(F)F)[nH]c(=O)[nH]c1=O [Example 49, (R)-5-amino-2,6-dioxo-N-(5-(trifluoromethyl)-1,2,3,4-tetrahydronaphthalen-1-yl)-1,2,3,6-tetrahydropyrimidine-4-carboxamide]
≤ 10 µM | – | COC(=O)[C@H]1CC[C@@H](NC(=O)c2[nH]c(=O)[nH]c(=O)c2N)CC1 [Example 43, cis-methyl 4-(5-amino-2,6-dioxo-1,2,3,6-tetrahydropyrimidine-4-carboxamido) cyclohexanecarboxylate]
≤ 10 µM | – | O=C(N[C@@H]1CC[C@H](c2ccccc2)c2ccccc21)c1[nH]c(=O)[nH]c(=O)c1O [Example 250, 5-hydroxy-2,6-dioxo-N-((1R,4R)-4-phenyl-1,2,3,4-tetrahydronaphthalen-1-yl)-1,2,3,6-tetrahydropyrimidine-4-carboxamide]
≤ 10 µM | – | COCCNc1c(C(=O)N[C@H]2CC[C@@H](c3ccccc3)CC2)[nH]c(=O)[nH]c1=O [Example 214, 5-(2-methoxyethylamino)-2,6-dioxo-N-(cis-4-phenylcyclohexyl)-1,2,3,6-tetrahydropyrimidine-4-carboxamide]
≤ 10 µM | 0.276 µM | Nc1c(C(=O)NC2CCN(c3ccc(C(F)(F)F)cn3)C2)[nH]c(=O)[nH]c1=O (centres unmarked) [Example 190, 5-amino-2,6-dioxo-N-(1-(5-(trifluoromethyl)pyridin-2-yl)pyrrolidin-3-yl)-1,2,3,6-tetrahydropyrimidine-4-carboxamide]
